Reference: ChEMBL document CHEMBL1201862, “PubChem BioAssay data set” (2004)
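Grown in 96-well plates, cells were treated for 48 hours with each compound at five concentrations. Insufficient inhibition: endpoint recorded as highest concentration tested. Abbreviation: GI50, concentration required for 50% inhibition of growth.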 Activity calls are given as the source filed them. Rule as the data show it: active = GI50 up to about 1.1 µM and inactive = higher. Non-standard residues stand in square brackets, D forms with d. Residues, ends and D or L forms follow the SMILES beside them. *: point of attachment. Phe(4-NO2) = N[CH](Cc1ccc([N+](=O)[O-])cc1)C(=O)O; Boc = CC(C)(C)OC(=O)*

Columns and labels:
Test in all cases: inhibition of tumour cell growth, NCI panel, 48 h
HL-60 = test system: HL-60
HOP-62 = test system: HOP-62
PC-3 = test system: PC-3
MDA-MB-435 = test system: MDA-MB-435
LOX IMVI = test system: LOX IMVI
UACC-257 = test system: UACC-257
MDA-MB-231 = test system: MDA-MB-231
MDA-N = test system: MDA-N
IGROV-1 = test system: IGROV-1
NCI-H460 = test system: NCI-H460
UO-31 = test system: UO-31
OVCAR-8 = test system: OVCAR-8
786-0 = test system: 786-0
HOP-92 = test system: HOP-92
NCI-H522 = test system: NCI-H522

Measured: GI50

CCSc1nc(N)c2c(-c3ccccc3)c3c(nc2n1)CCC3
inactive: HL-60 > 100 µM | HOP-62 > 100 µM | PC-3 > 100 µM | MDA-MB-435 > 100 µM | LOX IMVI > 100 µM | UACC-257 > 100 µM | MDA-MB-231 > 100 µM | MDA-N > 100 µM | IGROV-1 > 100 µM | NCI-H460 > 100 µM | UO-31 2.59 µM | OVCAR-8 > 100 µM

C[C@]12C[C@H](O)[C@H]3[C@@H](CCC4=CC(=O)CC[C@@]43C)[C@@H]1CC[C@@H]2c1csc(-c2ccccc2)n1
inactive: HOP-62 9.53 µM | PC-3 3.32 µM | 786-0 25.2 µM | HOP-92 27.8 µM | MDA-MB-435 > 46.3 µM | LOX IMVI > 58.3 µM | UACC-257 3.48 µM | MDA-MB-231 20.1 µM | MDA-N > 80.7 µM | IGROV-1 > 68.5 µM | NCI-H460 5.85 µM | NCI-H522 4.16 µM | OVCAR-8 35.8 µM

CN(C)c1ccc(C2ON=C(c3ccccc3)N2C23CC4CC(CC(C4)C2)C3)cc1 (stereo not given)
inactive: HL-60 9.55 µM | HOP-62 > 10 µM | PC-3 > 10 µM | 786-0 > 10 µM | HOP-92 > 10 µM | MDA-MB-435 > 10 µM | LOX IMVI > 10 µM | UACC-257 > 10 µM | MDA-MB-231 > 10 µM | MDA-N > 10 µM | IGROV-1 > 10 µM | NCI-H460 > 10 µM | NCI-H522 > 10 µM | OVCAR-8 > 10 µM

CC(C)(Br)C(Br)CCC(C)(Br)C(Br)CO (stereo not given)
inactive: HOP-62 > 10 µM | PC-3 > 10 µM | 786-0 > 10 µM | HOP-92 > 10 µM | MDA-MB-435 > 10 µM | UACC-257 > 10 µM | MDA-MB-231 > 10 µM | MDA-N > 10 µM | IGROV-1 > 10 µM | NCI-H522 > 10 µM | UO-31 > 10 µM | OVCAR-8 > 10 µM

COc1ccc(-c2c(C#N)c(N)nc3c2CCS(=O)(=O)c2ccccc2-3)cc1
inactive: HL-60 > 100 µM | PC-3 > 100 µM | 786-0 68.2 µM | HOP-92 > 100 µM | MDA-MB-435 > 100 µM | LOX IMVI > 100 µM | UACC-257 > 100 µM | MDA-MB-231 > 100 µM | IGROV-1 > 100 µM | NCI-H460 > 100 µM | NCI-H522 > 100 µM | UO-31 > 100 µM | OVCAR-8 > 100 µM

Cc1cccc(C)c1NC(=S)N/C=C(\C#N)C(N)=O
inactive: HOP-62 > 100 µM | PC-3 > 100 µM | 786-0 > 100 µM | HOP-92 > 100 µM | MDA-MB-435 > 100 µM | LOX IMVI > 100 µM | UACC-257 > 100 µM | MDA-MB-231 > 100 µM | MDA-N > 100 µM | IGROV-1 > 100 µM | NCI-H460 > 100 µM | NCI-H522 > 100 µM | UO-31 > 100 µM | OVCAR-8 > 100 µM

O1C2C1C1OC1C1OC1C1OC21 (stereo not given)
inactive: HOP-62 > 100 µM | PC-3 > 100 µM | HOP-92 > 100 µM | MDA-MB-435 > 100 µM | LOX IMVI > 100 µM | UACC-257 > 100 µM | MDA-MB-231 > 100 µM | MDA-N > 100 µM | NCI-H522 > 100 µM | UO-31 > 100 µM | OVCAR-8 > 100 µM

N/N=C1/C2CN3CCN(C2)CC1(c1ccc([N+](=O)[O-])cc1)C3
inactive: HL-60 > 100 µM | HOP-62 > 100 µM | PC-3 > 100 µM | 786-0 > 100 µM | MDA-MB-435 > 100 µM | LOX IMVI > 100 µM | UACC-257 > 100 µM | MDA-MB-231 > 100 µM | MDA-N > 100 µM | IGROV-1 > 100 µM | NCI-H522 > 100 µM | UO-31 > 100 µM | OVCAR-8 > 100 µM

O=C(/C=C/c1ccc(O)c(O)c1)O[C@H]1CCCC[C@@H]1OC(=O)/C=C/c1ccc(O)c(O)c1
inactive: HOP-62 9.77 µM | PC-3 15.6 µM | 786-0 7.48 µM | HOP-92 8.93 µM | MDA-MB-435 8.83 µM | LOX IMVI 3.45 µM | UACC-257 15.6 µM | MDA-MB-231 20.5 µM | MDA-N 8.87 µM | IGROV-1 4.9 µM | NCI-H460 5.14 µM | NCI-H522 5.22 µM | UO-31 7.03 µM | OVCAR-8 10.9 µM

COC(=O)CCC(NC(=O)OC(C)(C)C)C(=O)NC(Cc1ccc([N+](=O)[O-])cc1)C(=O)NC(CCC(=O)OC)C(=O)OC (stereo not given) (Boc-Glu(OMe)-[Phe(4-NO2)]-Glu(OMe)-OMe; configuration not given here)
inactive: HOP-62 > 100 µM | PC-3 > 100 µM | 786-0 > 100 µM | HOP-92 > 100 µM | MDA-MB-435 > 100 µM | LOX IMVI 26.6 µM | UACC-257 11.3 µM | MDA-MB-231 > 100 µM | MDA-N > 100 µM | IGROV-1 > 100 µM | NCI-H460 60.3 µM | NCI-H522 > 100 µM | UO-31 > 100 µM | OVCAR-8 > 100 µM
